The source of these data is US10765616B2, “Oral formulation of polyglucosamine derivatives in combination with a non-fermentable sugar” (SYNEDGEN, INC., priority 2013, dated 2020).

Series [1] deals with S. mutans biofilms. Nature of the series: Comparative biofilm reduction study of oral rinses and active ingredients (MBEC pegs). In kind it is cell-based, Streptococcus mutans. As to conditions: 72 h S. mutans biofilms, treated 2 minutes twice (6-hour interval), vs water control. As to the method:
Biofilms of S. mutans were grown on hydroxyapatite-coated pegs according to MBEC Assay™ methods for 72 hours, and then treated with the oral rinses or a water control. The corresponding active ingredients were also evaluated. The biofilms were exposed for 2-minutes, twice in a 6-hour interval to evaluate biofilm removal. Following treatment, biofilms were rinsed, fixed, and stained with 0.4% Crystal Violet, and remaining biofilm was quantitated via CFU or OD595 (Beenken and Smeltzer, 2003). Biofilms were analyzed in triplicate in at least 3 independent assays. Ratios were averaged from all assays and the percent biofilm reduced and standard error compared to water control is shown.

The subject of series [2] is S. mutans biofilms. Kind of series: MBEC peg biofilm biomass reduction assay of active ingredients (twice daily, OD595). In kind it is cell-based, Streptococcus mutans. As to conditions: 2 minutes, 8-hour interval, 32 μg/mL PAAG, 1.5% hydrogen peroxide, alcohol, lactoferrin, chlorhexidine. On the procedure: The S. mutans biofilms were grown according to MBEC™ for High-throughput Screening methods (Innovotech) on a hydroxyapatite-coated peg lid placed in trough containing BHI media supplemented with 1% sucrose rocking for 72 hours. The pegs were treated twice daily with PAAG (30% functionalized, 86 kD) active ingredients (FIG. 9) at 8-hour intervals for 2-minutes. The biofilms were rinsed in PBS, and the pegs were removed and placed into 200 μl 95% ethanol each for 2 minutes to fix the biofilms. The MBEC-HTP biofilms were stained with 150 μl of 3% Crystal Violet dye each for 2 minutes, and rinsed five times with PBS. It was noted that chlorhexidine appears to “fix” the biofilm to the pegs. The bacteria may or may not be viable because OD measured biofilm biomass, not viable CFUs. The stained and rinsed MBEC-HTP biofilms were then placed in 150 μL ethanol for 1-minute to remove the dye/biofilm. Then 100 μL of the ethanol and dyed biofilm suspension was placed into a 96-well plate and the OD595 was measured to quantify the remaining stained biofilm biomass.

A further series relates to A431 epithelial cells. As to the method: Human epithelial cell monolayers of A431 (ATCC CRL-1555) were seeded in tissue culture treated 96-well plates at a density of 2×10^4 cells/well in DMEM media supplemented with 10% FBS, 1% Penicillin-Streptomycin, and 1% Amphotericin B. Seeded cells were incubated at 37° C. with 5% CO2 for 48 hours. The media was removed and replaced with serum-free, antimicrobial-free media and rinsed one time for 30 seconds with PAAG Oral Formulation H, other oral products (Biotene, Corsodyl, Peroxyl, or Listerine), 32 μg/mL PAAG (30% functionalized, 86 kDa) and other active ingredients (0.029% lactoferrin, 0.2% chlorhexidine gluconate, 1.5% hydrogen peroxide, or 20% alcohol). Epithelial cell viability was determined by ATPLite Luminescence ATP Detection Assay System (PerkinElmer). Testing was done in duplicate.
Epithelial cell viability was compared between PAAG and other oral active ingredients and oral rinse products. Human epithelial cell monolayers were rinsed once for 30 seconds with each treatment. Following treatment, the epithelial cells were evaluated with ATP LITE Luminecence assay that measured viability via ATP. The data was normalized to untreated cells to compare percent survival (FIG. 4). […] The cells were rinsed once with PAAG Oral Formulation H, other oral rinse products (Biotene, Corsodyl, Peroxyl, or Listerine), oral products active ingredients (0.0032% PAAG, 0.029% lactoferrin (LF), 0.2% chlorhexidine (CHG), 1.5% hydrogen peroxide, or 20% alcohol). PAAG Oral Formulation H contains sorbitol (17.5%), glycerin (10%), xylitol (2.5%), polysorbate 20 (1.5%), peppermint oil (0.2%), benzoic acid (0.3%), sodium fluoride (0.5%), and PAAG (0.0032%). Epithelial cell viability was determined by ATPLite Luminescence ATP Detection Assay System (Perkin Elmer) and compared to media rinsed cells.

For the next series, the system named is S. mutans. Nature of the series: PAAG and sorbitol combination bactericidal assay (viable plate counts). In kind it is cell-based, Streptococcus mutans. To be noted: sorbitol 0-25% w/v, 30 minutes. On the procedure: A range of sorbitol concentrations (0-25% w/v) was mixed with a range of PAAG concentrations (4-32 μg/mL, 86 kDa, 30% functionalized). S. mutans was exposed to each for 30 minutes before being neutralized with D/E neutralization broth, then diluted and plated for measurement of viable plate counts (CFU).

The mark [3] stands for this setting: active ingredients at the concentration printed in the row or sentence.

In the case of `CCO` [Alcohol, alcohol], the “Percent (%) Biomass Reduced” value in the series on S. mutans biofilms [1] (setting [3]) is recorded as 39.9 ± 3.9%; with S. mutans biofilms [1] (active ingredients at the concentration printed in the row or sentence, listed as alcohol), 39.9±3.9%. Besides, the “reduction in S. mutans biofilm biomass compared to water control” value (“reduction in S. mutans biofilm biomass” for short) with S. mutans biofilms [2] was “significant reduction”.
For the compound `[H]/N=C(\N/C(=N/[H])NCCCCCCNC(=N)NC(=N)Nc1ccc(Cl)cc1)Nc1ccc(Cl)cc1` [Chlorhexidine, chlorhexidine gluconate], the “Percent (%) Biomass Reduced” value with S. mutans biofilms [1] (setting [3]) amounted to 17.1 ± 4.5%; with S. mutans biofilms [1] (active ingredients at the concentration printed in the row or sentence, listed as Chlorhexidine gluconate), 17.1±4.5%. Besides, in the series on S. mutans biofilms [2], the “reduction in S. mutans biofilm biomass” value is on record as “did not significantly reduce”.
Turning to `OO` [hydrogen peroxide], the “Percent (%) Biomass Reduced” value in the series with S. mutans biofilms [1] (active ingredients at the concentration given, listed as H2O2) is reported as 36.9 ± 3.8%; in the series on S. mutans biofilms [1] (setting [3]), 36.9±3.8%. Besides, the epithelial cell viability result in the series on A431 epithelial cells is given as “maintain epithelial cell viability”. Further, in the series on S. mutans biofilms [2], the “reduction in S. mutans biofilm biomass” value is recorded as “significant reduction”.
As for `OC[C@@H](O)[C@@H](O)[C@H](O)[C@@H](O)CO` [sorbitol], the “effect of sorbitol alone on bacterial viability” value with S. mutans was “did not affect bacterial viability”.
As for “poly (acetyl, arginyl) glucosamine [PAAG]”, in the series with A431 epithelial cells, the “cytotoxicity to epithelial cells compared to other oral rinse products” value is given as “least cytotoxic” and the epithelial cell viability entry is on record as “maintain epithelial cell viability”.
